US12351587B2, “Bicyclic compound as RIP-1 kinase inhibitor and application thereof” (MEDSHINE DISCOVERY INC., priority 2019, dated 2025)

Assays:
[1] = Plasma protein binding rate (PPB), mouse plasma; type: in vitro ADME, CD-1 mice; conditions: 2 μM, dialysis 4 hours 37° C.
Procedure: (§1) 796 μL of bank plasma from humans, SD rats and CD-1 mice (plasma purchased from BioreclamationIVT) were weighed, and the assay compound working solution or warfarin working solution was added so that the final concentration of the assay compound and warfarin in the plasma sample was 2 μM. The samples were mixed thoroughly. The final concentration of DMSO in the organic phase was 0.5%, 50 μL of plasma samples of the assay compound and warfarin were pipetted to a sample receiving plate, and the corresponding volume of the corresponding blank plasma or buffer was added immediately, so that the final volume in each sample well was 100 μL, wherein the volume ratio of plasma:dialysis buffer was 1:1. Stop solution was then added to these samples. These samples were used as T0 samples for determination of recovery and stability. The plasma samples of the assay compound and warfarin were added to the dosing end of each dialysis well, and blank dialysis buffer was added to the corresponding receiving end of the dialysis well. […] All samples were subjected to protein precipitation, and then analyzed by LC/MS/MS. Unbound rate (% Unbound), bound rate (% Bound), and recovery rate (% Recovery) of the compound were calculated using the following formulae: % Unbound=100*FC/TC, % Bond=100−% Unbound, and % Recovery=100*[…]/T0, […]

[2] = tested on: All other kinases (411 of 413 kinases); experiment: Kinase selectivity assay (Eurofins, 33P radiolabeled kinase activity): all other kinases; type: biochemical; conditions: WX009 1 μM, ATP 10 μM
Procedure: (§2) The purpose of this assay was to detect the in vitro inhibitory activity of WX009 on a variety of kinases. The kinases used in this assay included 413 kinases, and the activity detection method was provided by Eurofins Pharma Discovery Service A method of detecting ^33P radiolabeled kinase activity was used for the assay. The concentration of WX009 was 1 μM, and the concentration of ATP was 10 μM.

[3] = Plasma protein binding rate (PPB), human plasma; type: in vitro ADME; conditions: 2 μM, dialysis 4 hours 37° C.
Procedure: as §1

[4] = tested on: TNF-α/zVAD induced systemic inflammatory response syndrome (SIRS); experiment: Mouse model of TNF-α induced systemic inflammatory response syndrome (SIRS); type: in vivo; conditions: 10 mpk by gavage
Procedure: Assay Example 4: In Vivo Efficacy Study in Mouse Model of Tumor Necrosis Factor (TNF-α) Induced Systemic Inflammatory Response Syndrome (SIRS)
Instruments and Materials • 1) Electronic balance: Brand Changzhou Tianzhiping Instrument Equipment Co., Ltd., Model JY20002 • 2) Anal thermometer. Brand PHYSITEMP, model BAT-12 Formulation of Reagents • 1) TNF-α: TNF-α was centrifuged quickly (10000 rmp, 30 s) before opening the lid. One bottle of TNF-α (1 mg) was dissolved in 1 mL of sterile water to prepare a mother liquor with a concentration of 1 mg/mL. The mother liquor was stored at 4° C. and cm be stored for one week, 1000 μL of the mother liquor was weighed and added to 5667 μL of sterile water, and then 333 mg of trehalose was added and dissolved to prepare a working solution. • 2) zVAD: […] of zVAD was weighed and added to 480 μL of DMSO, and the mixture was vortexed, sonicated, and heated at 37° C., and then 15.52 mL of physiological saline was added. A working solution with a concentration of 1.25 mu/mL was prepared. Assay Steps • 1) The mice were reared adaptively for 3 days, and then randomly grouped into cages, 5 mice in each cage. Ear tags were cut. • 2) Firstly, the mice were given the corresponding compound by gavage according to their body weight, and then injected intraperitoneally with zVAD at a dose of 250 μg per mouse. After the intraperitoneal injection of zVAD, the anal temperature was measured immediately (0 h), and the time was recorded. The time when mice were given zVAD was defined as the 0th hour (0 h). • 3) After 15 minutes, TNF-α was injected through the tail vein at a dose of 200 μL per mouse, and then the anal temperature was measured 15 minutes later (0.5 h). • 4) After 1 h, zVAD was injected intraperitoneally at a dose of 125 μg per mouse, and then the anal temperature was measured immediately (1 h). The anal temperature was measured again at 2 h, 3 h, and 4 h.

LIMK2 = biological target: T1, LIMK2 (Homo sapiens, UniProt P53671); experiment: Kinase selectivity assay (Eurofins, 33P radiolabeled kinase activity): LIMK2; type: biochemical; conditions: WX009 1 μM, ATP 10 μM, read-out: Inhibition rate
T1 construct: purchased Eurofins Pharma Discovery Service
T1 sequence (P53671 whole entry, species assumed): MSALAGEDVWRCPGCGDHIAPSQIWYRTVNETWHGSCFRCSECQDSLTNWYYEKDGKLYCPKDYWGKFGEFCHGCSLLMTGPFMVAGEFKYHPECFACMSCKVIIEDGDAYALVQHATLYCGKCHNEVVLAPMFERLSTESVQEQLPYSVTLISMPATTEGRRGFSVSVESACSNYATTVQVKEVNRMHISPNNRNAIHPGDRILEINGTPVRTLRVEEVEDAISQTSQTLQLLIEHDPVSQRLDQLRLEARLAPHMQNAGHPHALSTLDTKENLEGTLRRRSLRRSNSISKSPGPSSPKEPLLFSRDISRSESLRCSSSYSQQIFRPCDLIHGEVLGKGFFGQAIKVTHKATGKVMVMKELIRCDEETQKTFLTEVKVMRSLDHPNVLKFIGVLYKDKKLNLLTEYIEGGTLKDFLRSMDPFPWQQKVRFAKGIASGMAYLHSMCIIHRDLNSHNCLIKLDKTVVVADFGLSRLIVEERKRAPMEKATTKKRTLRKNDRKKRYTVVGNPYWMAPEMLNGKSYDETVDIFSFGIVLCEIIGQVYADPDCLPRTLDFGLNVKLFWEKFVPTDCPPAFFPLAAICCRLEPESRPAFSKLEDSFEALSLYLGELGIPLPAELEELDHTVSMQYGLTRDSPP
Procedure: as §2

[5] = Pharmacokinetic parameters in dogs; type: in vivo; conditions: beagle, plasma, dog
Procedure: Four healthy adult beagle dogs were selected and randomly divided into two groups. One group was given the assay compound by intravenous injection, and the other group was given the assay compound by gavage. Plasma samples were collected respectively from animals in the intravenous group and gavage group at 0.083, 0.25, 0.5, 1.0, 2.0, 4.0, 6.0, 8.0, 24 hours after administration. The blood concentration was determined by LC-MS/MS method. Relevant pharmacokinetic parameters were calculated by WinNonlin™ Version 6.3 (Pharsight. Mountain View, CA) pharmacokinetic software using non-compartmental model and linear logarithmic trapezoidal method. AUC0-last represents the area under the plasma concentration-time curve from zero time point to the last detectable concentration time point; Cmax represents the peak concentration; Tmax represents the time to reach the peak; T1/2 represents the half-life; CL represents the clearance rate; Vdss represents apparent volume of distribution; p.o. represents per os; i.v. represents intravenous injection; and F % represents oral bioavailability.

CN1C(=S)[C@@H](NC(=O)c2ncn(Cc3ccccc3)n2)COc2cccnc21 [WX009]
PPB_Unbound [1]: 7.0% | Inhibition rate [2]: <50% | PPB_Unbound [3]: 5.7% | 4-hour survival rate of animals [4]: 100% | Decrease in mouse body temperature ([4]; 1 hour): 0.94 °C | Decrease in mouse body temperature ([4]; 2 hours): 1.2 °C | Decrease in mouse body temperature ([4]; 3 hours): 1.42 °C | Decrease in mouse body temperature ([4]; 4 hours): 1.52 °C | inhibition at 1 µM (LIMK2): 50 to 79% | AUC(0-t) ([5]; 3 mg/kg, iv = 3 mpk): 20.8 µM·h | clearance ([5]; 3 mg/kg, iv = 3 mpk): 0.372 L/h/kg | half-life ([5]; 3 mg/kg, iv = 3 mpk): 5.5 h | Vd ([5]; 3 mg/kg, iv = 3 mpk, read-out: Vdss): 2.4 L/kg | AUC(0-t) ([5]; 10 mg/kg, po = 10 mpk): 23.6 µM·h | Cmax ([5]; 10 mg/kg, po = 10 mpk): 0.284 µM | Tmax ([5]; 10 mg/kg, po = 10 mpk): 2 h | bioavailability ([5]; po = 10 mpk vs iv = 3 mpk): 34.2%
